# Structures can show the parent of a compound that is named as a salt.
# Target: T1, human recombinant chemokine CCR8 receptor (Homo sapiens, UniProt P51685)
# T1 construct: purchased Euroscreen ES-136-M; host or cells: CHO-K1 cells (transfected), membrane preparation
# Test: CCL1 SPA binding assay
# Conditions: IC50 (nM), membranes from CHO-K1 cells transfected with human CCR8; 125I CCL1 displacement, SPA beads
# Experimental: Membranes from CHO-K1 cells transfected with human recombinant chemokine CCR8 receptor (ES-136-M) were purchased from Euroscreen. Membrane preparations are stored at −70 C in 7.5 mM Tris-Cl pH 7.5, 12.5 mM MgCl2, 0.3 mM EDTA, 1 mM EGTA, 250 mM sucrose until used.
# The CCR8 membranes (50.6 mg/ml) were preincubated with Wheat Germ Agglutinin SPA beads (4.05 mg/ml) in assay buffer (50 mM HEPES, 1 mM CaCl2×2H2O, 5 mM MgCl2×6H2O, 75 mM NaCl, 0.1% BSA) at pH=7.4 for 2 hours on ice. A […] dose-response curve (final concentrations 50 μM, 16.7 μM, 5.6 μM, 1.9 μM, 0.62 μM, 0.21 μM, 0.069 μM, 0.023 μM) was prepared by diluting compounds by serial dilution 1:3 in DMSO. In the screening plate (Polystyrene NBS plates, Costar Corning 3604) 1 μl from the DMSO solutions of compounds was transferred into each well. 1 μl of DMSO was added to the blank control wells and 1 μl unlabeled CCL1 (300 nM) was added to background control wells. 50 μl of the SPA bead-membrane mixture was added into each well. Finally, 50 μl ([…]) ^125I CCL1 (2000 Ci/mM) was added to each well. Plates were then incubated at RT with shaking (700 rpm) for 90 minutes followed by 30 minutes at RT without shaking. The plate was read in a Wallac MicroBeta counter for 2 minutes/well.
# T1 sequence (P51685 whole entry): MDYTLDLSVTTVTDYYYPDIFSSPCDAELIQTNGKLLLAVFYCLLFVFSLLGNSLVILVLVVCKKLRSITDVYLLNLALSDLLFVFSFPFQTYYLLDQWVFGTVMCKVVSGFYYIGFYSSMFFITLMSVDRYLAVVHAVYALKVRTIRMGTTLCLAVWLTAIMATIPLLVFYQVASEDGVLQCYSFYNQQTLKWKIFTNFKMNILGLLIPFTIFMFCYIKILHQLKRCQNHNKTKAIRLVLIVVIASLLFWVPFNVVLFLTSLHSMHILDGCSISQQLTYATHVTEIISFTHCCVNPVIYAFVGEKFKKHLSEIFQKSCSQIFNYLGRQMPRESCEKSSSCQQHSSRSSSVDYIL
row,SMILES,IC50 [nM]
1,"CC1(C)Cc2c(CN3CCC4(CC3)CCN(C(=O)c3ccc(N)cn3)CC4)cccc2O1 [Example 86, 6-({9-[(2,2-dimethyl-2,3-dihydro-1-benzofuran-4-yl)methyl]-3,9-diazaspiro[5.5]undec-3-yl}carbonyl)pyridin-3-amine Trifluoroacetate]",8

# Same assay, conditions: membranes from CHO-K1 cells transfected with human CCR8; 125I CCL1 displacement, SPA beads; read-out: IC50
row,SMILES,IC50 [nM]
1,"CC1(C)Cc2cccc(CN3CCC4(CC3)CCN(C(=O)c3ccncc3)CC4)c2O1 [Example 1, 3-[(2,2-dimethyl-2,3-dihydro-1-benzofuran-7-yl)methyl]-9-isonicotinoyl-3,9-diazaspiro[5.5]undecane Trifluoroacetate]",12
2,"COC(=O)Cc1ccccc1C(=O)N1CCC2(CCN(Cc3cccc4c3OC(C)(C)C4)CC2)CC1 [Example 5, Methyl [2-({9-[(2,2-dimethyl-2,3-dihydro-1-benzofuran-7-yl)methyl]-3,9-diazaspiro[5.5]undec-3-yl}carbonyl)phenyl]acetate]",9
3,"CC1(C)Cc2cccc(CN3CCC4(CC3)CCN(C(=O)c3ccccc3CC(=O)N3CCC[C@@H]3C(N)=O)CC4)c2O1 [Example 18, 1-{[2-({9-[(2,2-dimethyl-2,3-dihydro-1-benzofuran-7-yl)methyl]-3,9-diazaspiro[5.5]undec-3-yl}carbonyl)phenyl]acetyl}-D-prolinamide]",57
4,"CC1(C)Cc2cccc(CN3CCC4(CC3)CCN(C(=O)c3ccno3)CC4)c2O1 [Example 31, 3-[(2,2-dimethyl-2,3-dihydro-1-benzofuran-7-yl)methyl]-9-(isoxazol-5-ylcarbonyl)-3,9-diazaspiro[5.5]undecane Trifluoroacetate]",10
5,"CC1(C)Cc2cccc(CN3CCC4(CC3)CCN(C(=O)c3ccccc3NC(=O)C3CCCO3)CC4)c2O1 (stereo not shown) [Example 49, N-[2-({9-[(2,2-dimethyl-2,3-dihydro-1-benzofuran-7-yl)methyl]-3,9-diazaspiro[5.5]undec-3-yl}carbonyl)phenyl]tetrahydrofuran-2-carboxamide]",38
6,"CC1(C)Cc2cccc(CN3CCC4(CC3)CCN(C(=O)c3cccc5c3NC(=O)C5=O)CC4)c2O1 [Example 63, 7-({9-[(2,2-dimethyl-2,3-dihydro-1-benzofuran-7-yl)methyl]-3,9-diazaspiro[5.5]undec-3-yl}carbonyl)-1H-indole-2,3-dione Trifluoroacetate]",143
7,"CC1(C)Cc2cccc(CN3CCC4(CC3)CCN(C(=O)c3ccc5cc[nH]c5c3)CC4)c2O1 [Example 68, 3-[(2,2-dimethyl-2,3-dihydro-1-benzofuran-7-yl)methyl]-9-(1H-indol-6-ylcarbonyl)-3,9-diazaspiro[5.5]undecane Acetate]",8
8,"CC1(C)Oc2cccc(CN3CCC4(CC3)CCN(C(=O)c3ncccc3N)CC4)c2O1 [Example 92, 2-({9-[(2,2-dimethyl-1,3-benzodioxol-4-yl)methyl]-3,9-diazaspiro[5.5]undec-3-yl}carbonyl)pyridin-3-amine]",23
9,"CC1(C)COc2c(CN3CCC4(CC3)CCN(C(=O)c3ccncc3)CC4)cccc2O1 [Example 110, 3-[(2,2-dimethyl-2,3-dihydro-1,4-benzodioxin-5-yl)methyl]-9-isonicotinoyl-3,9-diazaspiro[5.5]undecane Trifluoroacetate]",53
10,"CC1(C)Cc2cccc(CN3CCC4(CC3)CCN(C(=O)CCc3nc(-c5ccccn5)no3)CC4)c2O1 [Example 111, 3-[(2,2-dimethyl-2,3-dihydro-1-benzofuran-7-yl)methyl]-9-[3-(3-pyridin-2-yl-1,2,4-oxadiazol-5-yl)propanoyl]-3,9-diazaspiro[5.5]undecane]",104
11,"CC1(C)Cc2c(CN3CCC4(CC3)CCN(C(=O)c3ccnc(N)n3)CC4)cccc2O1 [Example 124, 4-({9-[(2,2-dimethyl-2,3-dihydro-1-benzofuran-4-yl)methyl]-3,9-diazaspiro[5.5]undec-3-yl}carbonyl)pyrimidin-2-amine]",12
12,"CC1(C)Oc2cccc(CN3CCC4(CC3)CCN(C(=O)c3ccc(N)[nH]c3=O)CC4)c2O1 [Example 133, 6-amino-3-({9-[(2,2-dimethyl-1,3-benzodioxol-4-yl)methyl]-3,9-diazaspiro[5.5]undec-3-yl}carbonyl)pyridin-2(1H)-one]",84
13,"CC1(C)C=Cc2cccc(CN3CCC4(CC3)CN(C(=O)c3ccncc3)C4)c2O1 [Example 139, 7-[(2,2-dimethyl-2H-chromen-8-yl)methyl]-2-isonicotinoyl-2,7-diazaspiro[3.5]nonane]",70
14,"CC1(C)COc2cccc(CN3CCC4(CC3)CCN(C(=O)c3ccncc3CC(N)=O)CC4)c2O1 [Example 143, 2-[4-({9-[(3,3-dimethyl-2,3-dihydro-1,4-benzodioxin-5-yl)methyl]-3,9-diazaspiro[5.5]undec-3-yl}carbonyl)pyridin-3-yl]acetamide Ditrifluoroacetate]",32
15,"CC1(C)Cc2c(CN3CCC4(CC3)CN(C(=O)c3ccnc(N)n3)C4)cccc2O1 [Example 157, 4-({7-[(2,2-dimethyl-2,3-dihydro-1-benzofuran-4-yl)methyl]-2,7-diazaspiro[3.5]non-2-yl}carbonyl)pyrimidin-2-amine]",50
16,"CC1(C)Cc2c(CN3CCC4(CC3)CCN(C(=O)c3ccncc3CC(N)=O)CC4)cccc2O1 [Example 159, 2-[4-({9-[(2,2-dimethyl-2,3-dihydro-1-benzofuran-4-yl)methyl]-3,9-diazaspiro[5.5]undec-3-yl}carbonyl)pyridin-3-yl]acetamide]",87
17,"CC1(C)COc2c(CN3CCC4(CC3)CCN(C(=O)c3ccc(N)cn3)CC4)cccc2O1 [Example 173, 6-({9-[(2,2-dimethyl-2,3-dihydro-1,4-benzodioxin-5-yl)methyl]-3,9-diazaspiro[5.5]undec-3-yl}carbonyl)pyridin-3-amine Trifluoroacetate]",21
18,"COC(=O)Cc1ccccc1C(=O)N1CCC2(CCN(Cc3cccc4c3OC(C)(C)C4)CC2)CC1 [Example 181, Methyl [2-({9-[(2,2-dimethyl-2,3-dihydro-1-benzofuran-7-yl)methyl]-3,9-diazaspiro[5.5]undec-3-yl}carbonyl)phenyl]acetate]",72
